Assays:
[1] = system: mouse model of neurodegeneration affecting both the cortical neurones and the subjacent white matter; assay: Neuroprotection in the cortex and white matter: excitotoxic lesions by intracerebral ibotenate or S-bromo-willardiine; type: in vivo; conditions: for Cortical lesions: lesion, μm / White matter lesions: lesion, μm: 10 mg/kg i.p. immediately after excitotoxic assault at P5, sacrifice at P10, averages; for size of the lesions in the white matter and in the cortex (neuroprotective effect): newborn Swiss mouse, test compound intraperitoneally after excitotoxic assault
Method: The model used is a mouse model of neurodegeneration affecting both the cortical neurones and the subjacent white matter (S. L. Tahraoui et al., Brain Pathol., 2001, 11, 56-71). This model is based on an intracerebral injection of S-bromo-willardiine, a glutamatergic agonist that acts on AMPA-kainate receptors, or of ibotenate, an agonist of NMDA-type receptors, in the newborn mouse.
All the injections are carried out in the morning between 10.00 and 13.00 hours. The animals are anaesthetised in advance and kept under a heating lamp during the handling period. Each experimental group comprises from 5 to 12 Swiss mice of both sexes, from at least 2 different litters. On the 5th day of life (P5), 10 μg of ibotenate or 15 μg of S-bromo-willardiine are injected intracerebrally using a 25G gauge needle mounted on a 50 μl syringe, fixed to a calibrated device that delivers a bolus of 1 μl at each depression. The needle is inserted 2 mm below the cutaneous level, in the fronto-parietal region of the right hemisphere (2 mm in front of the lambdoid suture and 2 mm outside the median line). Two boluses of 1 μl (1 μl into the periventricular white matter and 1 μl into the cortex) are administered. An interval of 30 seconds, during which the needle remains in position, separates each bolus in order to allow diffusion of the product. Immediately after this excitotoxic assault, the test compound (3, 10 or 30 mg/kg) or the carrier is administered intraperitoneally (injected volume=5 μl). The animals are sacrificed by decapitation 5 days later (P10) and their brains are immediately removed and fixed in formol before being enclosed in paraffin. Series of 15 μm coronal sections are prepared for all the brains and stained with cresyl violet, which makes it possible to determine in a precise and reproducible manner the anterio-posterior axis of the histological lesions in both the cortex and the white matter. The sizes of the histological lesions are determined by two independent observers having no knowledge of the experimental groups. The results are expressed in the form of averages.

[2] = system: primary cultures of cardiomyocytes; assay: Anti-apoptotic effect in primary cultures of cardiomyocytes (H2O2-induced apoptosis); type: cell-based; conditions: newborn rat cardiomyocytes; H2O2 0.075 mmol/liter for 30 minutes, then 24 hours culture
Method: An in vitro study into an anti-apoptotic effect in primary cultures of cardiomyocytes was carried out by inducing apoptosis by adding hydrogen peroxide (H2O2). The free radicals produced induce apoptosis. This is similar to what is observed in ischaemia-reperfusion (R. Von Harsdorf, Circulation 99, 2934-2941). The cardiomyocytes are isolated from newborn rat hearts and are spread out at a density of 35 000 cells/cm^2. The process of apoptosis is induced by the addition of H2O2 (0.075 mmol/liter) for 30 minutes. The cardiomyocytes are then replaced in the culture medium for 24 hours. The apoptotic cells are visualised by various techniques, for example by the fragmentation of the genomic DNA that occurs in the process of apoptosis. […] The characteristic fragments of 180 bp of genomic DNA are detected by electrophoresis on agarose gel. The migration of phosphatidylserine (PS) from the inside of the membrane of the […] to the outside (externalisation) is an early indicator of apoptosis. This can be visualised by fluorescent labelling using annexin-V-FITC (fluorescein isothiocyanate) and quantified by comparison with the total number of cells.

[3] = system: lesions induced by kainic acid in the CA1 and CA3 regions of the hippocampus; assay: Neuroprotection in the CA1 and CA3 regions of the hippocampus (kainic acid lesions); type: in vivo, rat; conditions: single injection 20 mg/kg intraperitoneal 3 minutes before kainic acid 12 mg/kg i.p.; sacrifice 7 days later
Method: The histopathological changes observed which are associated with administration of kainic acid differ from cerebral ischaemia caused by lesions that develop first in the CA1 to CA3 regions of the hippocampus (C. Montecot et al., Neuroscience 84, 791-800). The aim is to study the protective effect against lesions induced essentially in the CA3 region of the hippocampus while there is no reduction in the circulation of blood.
Kainic acid is administered intraperitoneally to a conscious rat in a dose of 12 mg/kg. The animal is then observed for a period of about 2 hours during which, after a latent period, epileptiform convulsions occur. At the end of 2 hours, the convulsions are stopped by administration of 10 mg/kg of diazepam. The animals are sacrificed 7 days later, their brains are isolated and 8 transverse sections 15 μm thick, spaced 150 μm apart, are prepared. These are analysed by contrast microscopy by two independent observers having no knowledge of the experimental groups. A rating of 0 to 3 is given according to the severity of the neuronal lesions. The ratings for each hemisphere are added together to obtain a lesion rating.
The product is administered in a dose of 20 mg/kg by the intraperitoneal route 3 minutes before administration of the kainic acid.

[4] = system: transitory focal cerebral ischaemia; assay: Anti-ischaemic activity: transitory focal cerebral ischaemia by intraluminal occlusion; type: in vivo; conditions: adult male Wistar rat; 1 mg/kg intravenously 3 minutes before occlusion; occlusion 1 hour, reperfusion 23 hours
Method: The model used is a model of transitory focal cerebral ischaemia produced by intraluminal occlusion which mimics an embolic cerebral vascular accident in humans. The location of the infarction is cortical and subcortical (R. Bordet et al., J Cereb Blood Flow Metab. 20, 2000, 1190-1196 and 1999, 19, 1309-1345).
The model consists of a unilateral occlusion of the […] for 1 hour followed by reperfusion for 23 hours in an adult male Wistar rat. The aim of this experiment is to study the anti-ischaemic effect of the compounds of the invention.
The animals are anaesthetised for surgery with 300 mg/kg of chloral hydrate. For the duration of the surgery, their temperature is monitored and maintained at 37° C. using a temperature-controlled heating blanket.
The principal procedure is to stop the circulation of blood to the right middle cerebral artery (MCA) by intraluminal occlusion of the ostium. After 60 minutes, the occlusion is removed and the animals are replaced in their cage. After 24 hours the animals are sacrificed under anaesthetic. […]
The uncorrected infarcted zones and the total hemispheric zones are calculated separately for each section using an image analysis program. The corrected total volume of infarction is calculated in order to compensate for the effect of cerebral cedema. […]

| Structure (SMILES) | Cortical lesions: lesion, μm [1] [μm] | White matter lesions: lesion, μm [1] [μm] | size of the lesions in the white matter and in the cortex (neuroprotective effect) [1] | cell survival [2] | percentage of cells undergoing apoptosis [2] | protection of neurones of the CA1 and CA3 regions of the hippocampus against kainic acid lesions [3] | size of the infarction of the cortex and striatum [4] |
| --- | --- | --- | --- | --- | --- | --- | --- |
| COc1ccc(CN2CCN(Cc3ccccc3)CC2)c(OCCCCCCC(=O)O)c1OC.Cl.Cl [Example 2, 7-{6-[(4-Benzyl-1-piperazinyl)methyl]-2,3-dimethoxyphenoxy}-heptanoic acid dihydrochloride] | 200 | 146.7 | reduced the size of the lesions in the white matter and in the cortex | increase | decrease | protects the neurones of the CA1 and CA3 regions of the hippocampus against lesions induced by kainic acid | reduced the size of the infarction of the cortex and striatum significantly |
| COc1ccc(CN2CCNCC2)c(OC)c1OC [TMZ, Trimetazidine, reference compound] | 800 | 320 | very low neuroprotective effect |  |  |  |  |
